Data: ChEMBL document CHEMBL1151546, “A new structural analogue antagonist of peptido-leukotrienes. The discovery of bay x7195” (Bioorg Med Chem Lett, 1993)
Each block holds one compound with its values, some of them ahead of it.

Columns and labels:
[1] = molecular target: T1, Cysteinyl leukotriene receptor 1 (Cavia porcellus) (UniProt Q2NNR5); test: Compound was evaluated for its antagonist affinity at 10 (uM) on guinea-pig trachea rings against LTD4 receptor; type: functional, tissue-based
T1 sequence (whole entry): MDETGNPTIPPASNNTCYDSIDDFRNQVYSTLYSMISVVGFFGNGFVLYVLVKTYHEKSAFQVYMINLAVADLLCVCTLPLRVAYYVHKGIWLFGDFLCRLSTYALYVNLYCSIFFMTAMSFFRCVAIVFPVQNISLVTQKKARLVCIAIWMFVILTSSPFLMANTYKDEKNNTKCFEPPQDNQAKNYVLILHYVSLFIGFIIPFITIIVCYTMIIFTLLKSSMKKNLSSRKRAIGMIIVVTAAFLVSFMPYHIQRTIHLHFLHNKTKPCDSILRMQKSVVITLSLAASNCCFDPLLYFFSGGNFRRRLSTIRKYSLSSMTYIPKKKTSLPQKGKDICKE

[2] = molecular target: T2, Cysteinyl leukotriene receptor 1 (Cavia porcellus, UniProt Q2NNR5); test: Inhibition of [3H]LTD4 binding to guinea-pig lung membranes; type: tissue-based, Membrane
T2 sequence (Q2NNR5 whole entry): T1 sequence (whole entry)

[3] = molecular target: T2, Cysteinyl leukotriene receptor 1; test: (§1) Compound was evaluated for its antagonist affinity at 0.1 uM on guinea-pig trachea rings against LTD4 receptor; type: functional, tissue-based; settings: read-out: pA2 (converted)
[4] = molecular target: T1, Cysteinyl leukotriene receptor 1 (Cavia porcellus); test: Compound was evaluated for its antagonist affinity at 1 uM on guinea-pig trachea rings against LTD4 receptor; type: functional, tissue-based
Cavia porcellus [5] = test: Compound was tested in vivo for antagonistic potency of LTD4 induced contractions of guinea-pig trachea after oral administration; type: functional; settings: read-out: ID50 (the source's name)
Cavia porcellus [6] = organism: Cavia porcellus; test: spontaneously compound was tested for oral activity against LTD4 in spontaneously-breathing guinea pigs; type: functional; settings: read-out: ID50 (the source's name)
[7] = molecular target: T1, Cysteinyl leukotriene receptor 1 (Cavia porcellus); test: as §1; type: functional, tissue-based
[8] = molecular target: T3, Cysteinyl leukotriene receptor 1 (Homo sapiens) (UniProt Q9Y271); test: Compound was evaluated for its antagonist affinity against LTD4 on human bronchial muscle; type: functional, tissue-based; settings: Muscle tissue
T3 sequence (whole entry): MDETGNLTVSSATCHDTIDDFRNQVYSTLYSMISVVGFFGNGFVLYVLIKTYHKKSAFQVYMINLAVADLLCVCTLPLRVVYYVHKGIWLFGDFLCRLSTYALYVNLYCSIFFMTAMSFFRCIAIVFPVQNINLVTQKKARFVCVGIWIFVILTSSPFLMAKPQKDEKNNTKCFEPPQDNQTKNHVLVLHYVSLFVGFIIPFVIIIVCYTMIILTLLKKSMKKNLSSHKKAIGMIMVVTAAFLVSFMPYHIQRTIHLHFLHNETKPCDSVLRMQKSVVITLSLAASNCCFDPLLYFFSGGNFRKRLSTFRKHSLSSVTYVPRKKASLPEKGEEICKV

Cavia porcellus [9] = organism: Cavia porcellus; test: Compound was evaluated for its agonist activity on guinea-pig ileum, value expressed as the negative logarithm of the ED50 value; type: functional
[10] = molecular target: T2, Cysteinyl leukotriene receptor 1; test: Compound was evaluated for its binding affinity on guinea-pig ileum; type: tissue-based

Ki [2]: > 100000 nM
SMILES: O=C(O)CCC[C@H](O)[C@@H](/C=C\CCc1ccccc1)Sc1ccc(C(=O)O)cc1

Ki [2]: 316 nM
SMILES: O=C(O)CCC[C@H](O)[C@@H](/C=C\CCCCCCCCCOc1ccccc1)Sc1ccc(C(=O)O)cc1

Ki [2]: > 100000 nM
SMILES: O=C(O)CCC[C@H](O)[C@@H](/C=C/CCCc1ccccc1)Sc1ccc(C(=O)O)cc1

Ki [2]: 316 nM
SMILES: O=C(O)CCC[C@H](O)[C@@H](/C=C\CCCCCCCCc1ccccc1)Sc1ccc(C(=O)O)cc1

Ki [2]: > 100000 nM
SMILES: O=C(O)CCC[C@H](O)[C@@H](/C=C/CCc1ccccc1)Sc1ccc(C(=O)O)cc1

Ki [2]: 251 nM
SMILES: O=C(O)CCC[C@H](O)[C@@H](/C=C\CCCCCCCCCc1ccccc1)Sc1ccc(C(=O)O)cc1

Ki [2]: 20000 nM
SMILES: O=C(O)CCC[C@H](O)[C@@H](/C=C\CCCCCc1ccccc1)Sc1ccc(C(=O)O)cc1

Ki [2]: 631 nM
SMILES: O=C(O)CCC[C@H](O)[C@@H](/C=C\CCCCCCCCOc1ccccc1)Sc1ccc(C(=O)O)cc1

Ki [2]: 1260 nM
SMILES: O=C(O)CCC[C@H](O)[C@@H](/C=C\CCCCCCCCCCCc1ccccc1)Sc1ccc(C(=O)O)cc1

Ki [2]: 5010 nM
SMILES: O=C(O)CCC[C@H](O)[C@@H](/C=C\CCCCCCCCCCCCCc1ccccc1)Sc1ccc(C(=O)O)cc1

More lines, now with the values behind:

SMILES: O=C(O)CCC[C@H](O)[C@@H](/C=C\Cc1cccc(OCCCOc2ccccc2)c1)Sc1ccc(C(=O)O)cc1
pKB [1]: < 5

SMILES: O=C(O)CCC[C@H](O)[C@@H](/C=C/c1cccc(OCCCCOc2ccccc2)c1)Sc1ccc(C(=O)O)cc1
pKB [1]: 6.8

SMILES: O=C(O)CCC(/C=C/Cc1ccc(OCCCCOc2ccccc2)cc1)Sc1ccc(C(=O)O)cc1 (single isomer, unassigned; (+))
Kb [3]: 3.98 nM

SMILES: O=C(O)CCCC(/C=C\Cc1ccc(OCCCCOc2ccccc2)cc1)Sc1ccc(C(=O)O)cc1 (stereo unspecified)
pKB [4]: 7

SMILES: O=C(O)CCC[C@H](O)[C@@H](/C=C\c1ccccc1OCCCCOc1ccccc1)Sc1ccc(C(=O)O)cc1
pKB [1]: < 5

SMILES: O=C(O)CCC[C@H](O)[C@@H](/C=C\Cc1ccc(OCCCCOc2ccccc2)cc1)Sc1ccc(C(=O)O)cc1
pKB [1]: 8.3 | ED50 (Cavia porcellus [5]): ~3 mg/kg

SMILES: O=C(O)CCC(/C=C\Cc1ccc(OCCCCOc2ccccc2)cc1)Sc1ccc(C(=O)O)cc1 (stereo unspecified)
ED50 (Cavia porcellus [6]): 2 mg/kg | pKB [7]: 8.4 | pKB [8]: 8

SMILES: O=C(O)CC(/C=C\Cc1ccc(OCCCCOc2ccccc2)cc1)Sc1ccc(C(=O)O)cc1 (stereo unspecified)
pKB [4]: 6.9

SMILES: CCCCC/C=C\C\C=C/C=C/C=C/[C@@H](SC[C@H](N)C(=O)NCC(=O)O)[C@@H](O)CCCC(=O)O [LEUKOTRIENE D4]
pD2 (Cavia porcellus [9]): 8.4

SMILES: CCCCC/C=C\C\C=C/C=C/C=C/[C@@H](Sc1ccc(C(=O)O)cc1)[C@@H](O)CCCC(=O)O
Ki [10]: 100 nM

SMILES: CCCCC/C=C\C\C=C/C=C/C=C/[C@@H](Sc1cccc(C(=O)O)c1)[C@@H](O)CCCC(=O)O
pD2 (Cavia porcellus [9]): 8.2 | Ki [10]: 2 nM

SMILES: CCCCC/C=C\C\C=C/C=C/C=C/[C@@H](Sc1ccccc1C(=O)O)[C@@H](O)CCCC(=O)O
pD2 (Cavia porcellus [9]): 6.9 | Ki [10]: 25.1 nM

SMILES: O=C(O)CCC[C@H](O)[C@@H](/C=C\c1ccc(OCCCCOc2ccccc2)cc1)Sc1ccc(C(=O)O)cc1
pKB [1]: 6.5

SMILES: O=C(O)CCC(/C=C/Cc1ccc(OCCCCOc2ccccc2)cc1)Sc1ccc(C(=O)O)cc1 (single isomer, unassigned; (-))
Kb [3]: 100 nM

SMILES: CCCCC/C=C\C\C=C/C=C/C=C/[C@@H](SCC(=O)O)[C@@H](O)CCCC(=O)O
pD2 (Cavia porcellus [9]): 8.5 | Ki [10]: 2 nM

SMILES: O=C(O)CCCCC(/C=C\Cc1ccc(OCCCCOc2ccccc2)cc1)Sc1ccc(C(=O)O)cc1 (stereo unspecified)
pKB [7]: 8.3 | pKB [8]: 6.8

SMILES: O=C(O)c1ccc(SC(/C=C\Cc2ccc(OCCCCOc3ccccc3)cc2)C(=O)O)cc1 (stereo unspecified)
pKB [4]: 6.4

SMILES: O=C(O)CCC[C@H](O)[C@@H](/C=C\Cc1ccccc1OCCCOc1ccccc1)Sc1ccc(C(=O)O)cc1
pKB [1]: < 5

SMILES: O=C(O)CCC[C@H](O)[C@@H](/C=C\c1cccc(OCCCCOc2ccccc2)c1)Sc1ccc(C(=O)O)cc1
pKB [1]: < 5
